According to publication PMC6930675, “Discovery and Characterisation of Dual Inhibitors of Tryptophan 2,3-Dioxygenase (TDO2) and Indoleamine 2,3-Dioxygenase 1 (IDO1) Using Virtual Screening” (Molecules, 2019):
Where “and” joins values, the source holds several entries; their conditions need not be identical. Identical values can stand only once.

Assays:
TDO2 = tested on: TDO2; set-up: method as in PMID 27096472, PMID 28105265, PMID 26348881, PMID 22616902; details: cited from earlier work; for IC50: test library, read-out: IC50 (TDO2 active compounds of the test library)
IDO1 (SKOV3 cells) = molecular target: T1, IDO1 (SKOV3 cells) (Homo sapiens, UniProt P14902); assay: Cell based kynurenine assay in SKOV3 ovarian line (IDO1 expressor); details: for IC50: SKOV3 (IDO1), 18 h, read-out: IC50, inhibition of kynurenine secretion
T1 construct: identify cell lines endogenously expressing only IDO1, only TDO2, and both enzymes simultaneously; endogenous in cells; host or cells: SKOV3 ovarian cancer cell line
T1 sequence (P14902 whole entry): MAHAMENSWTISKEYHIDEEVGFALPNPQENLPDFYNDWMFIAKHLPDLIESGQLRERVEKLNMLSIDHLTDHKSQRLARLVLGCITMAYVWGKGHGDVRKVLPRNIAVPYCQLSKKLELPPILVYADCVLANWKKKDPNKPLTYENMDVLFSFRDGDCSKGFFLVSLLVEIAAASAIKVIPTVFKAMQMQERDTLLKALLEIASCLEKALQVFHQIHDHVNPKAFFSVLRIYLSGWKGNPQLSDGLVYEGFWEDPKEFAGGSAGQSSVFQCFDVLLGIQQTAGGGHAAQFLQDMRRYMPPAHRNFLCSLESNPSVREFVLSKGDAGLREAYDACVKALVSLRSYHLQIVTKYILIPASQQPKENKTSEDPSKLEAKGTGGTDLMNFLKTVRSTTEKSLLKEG
Procedure: (§1) Breast cancer cell lines MCF7, MDA-MB-231, BT549, Hs578T; ovarian cell line SKOV3; glioblastoma cell line A172 and lung cancer cell line H460 were grown in α-MEMGibco, Grand Island, NY, USA; ThermoFisher catalogue number 12000022) containing 5% foetal calf serum (Moregate Biotech, Hamilton, New Zealand), insulin/transferrin/selenium supplement (Roche, Ref-11074547001), added according to the manufacturer’s instructions, as well as penicillin/streptomycin (100 U/mL and 100 μg/mL, respectively). The amount of kynurenine produced by the cells was measured as described previously. Briefly, a well of a 96-well plate received 3.7 × 10^4 cells which were subsequently cultured with the addition of 50 μM ([…] and SKOV3 cells) or 100 μM (A172 cells) of L-tryptophan (Sigma-Aldrich, St Louis, MO, USA) with or without test compounds at 37 °C, 5% CO2 for 18 h. The cell number seeded was optimised to produce levels of kynurenine <40% of initial tryptophan to avoid tryptophan starvation and to ensure steady-state IDO1/TDO2 kinetics. Next, the culture supernatants were transferred into a fresh 96-well plate, incubated with trichloroacetic acid (10% final concentration) for 20 min at 60 °C to release kynurenine from the cells and precipitate proteins. After spinning the plates for 20 min at 2500 g, the supernatants were mixed at a 1:1 ratio with 4-(dimethylamino)benzaldehyde (20 mg/mL in acetic acid; Sigma) and the absorbance was read at 480 nm on an EnSpire 2300 Multimode Plate Reader (Perkin-Elmer, Singapore, Singapore). The remaining cells in the 96-well plate received a well-established indicator of cellular metabolic activity WST-1 (Roche Diagnostics Cat No 05015944, Basel, Switzerland; 10% diluted in culture media). After 1 h of incubation at 37 °C, the absorbance was measured at 440 nm. WST-1 is reduced on the outer membrane of viable cells to a soluble formazan by reducing equivalents such as NAD(P)H. The absorbance measured at 440 nm indicates the number of metabolically active cells in the culture and represents a surrogate marker of cell viability.
(§2) All experiments were repeated independently at least twice in technical quadruplicates. Calculations and graph plotting were performed in Prism (v8, 2018; GraphPad software, San Diego, CA, USA) and R computing environment (v3.5.3, 2019, 64-bit, Vienna, Austria). IC50 of the compounds in cellular enzymatic activity compared to untreated control cells was determined by fitting data to an equation f(x) = A + B/(1 + (IC50/X)^HILL) in Prism; where A is the minimum and B is the maximum of the curve, HILL is the slope of the curve and X is the compound concentration.

[1] = tested on: IDO1/TDO2 (SKOV3 and BT549 cell lines); assay: Single-concentration test of virtual hits for inhibition of kynurenine secretion in SKOV3 and BT549; assay type: cell-based, human; details: 20 µM
Procedure: as §1, with “Next, the culture supernatants were transferred into a fresh 96-well plate, incubated with trichloroacetic acid (10% final concentration) for 20 min at 60 °C to release kynurenine from the cells and precipitate proteins.” left out, “The remaining cells in the 96-well plate received a well-established indicator of cellular metabolic activity WST-1 (Roche Diagnostics Cat No 05015944, Basel, Switzerland; 10% diluted in culture media).” left out
as §2, with “Calculations and graph plotting were performed in Prism (v8, 2018; GraphPad software, San Diego, CA, USA) and R computing environment (v3.5.3, 2019, 64-bit, Vienna, Austria).” left out

IDO1/TDO2 (BT549 cells) = assay: Cell based kynurenine assay in BT549 breast line (dual IDO1/TDO2 expressor); set-up: species or system human
Procedure: (§3) Breast cancer cell lines MCF7, MDA-MB-231, BT549, Hs578T; ovarian cell line SKOV3; glioblastoma cell line A172 and lung cancer cell line H460 were grown in α-MEMGibco, Grand Island, NY, USA; ThermoFisher catalogue number 12000022) containing 5% foetal calf serum (Moregate Biotech, Hamilton, New Zealand), insulin/transferrin/selenium supplement (Roche, Ref-11074547001), added according to the manufacturer’s instructions, as well as penicillin/streptomycin (100 U/mL and 100 μg/mL, respectively). The amount of kynurenine produced by the cells was measured as described previously. […] After spinning the plates for 20 min at 2500 g, the supernatants were mixed at a 1:1 ratio with 4-(dimethylamino)benzaldehyde (20 mg/mL in acetic acid; Sigma) and the absorbance was read at 480 nm on an EnSpire 2300 Multimode Plate Reader (Perkin-Elmer, Singapore, Singapore). […] After 1 h of incubation at 37 °C, the absorbance was measured at 440 nm. WST-1 is reduced on the outer membrane of viable cells to a soluble formazan by reducing equivalents such as NAD(P)H. The absorbance measured at 440 nm indicates the number of metabolically active cells in the culture and represents a surrogate marker of cell viability. […]

TDO2 (A172 cells) = molecular target: T2, TDO2 (A172 cells) (Homo sapiens, UniProt P48775); assay: Cell based kynurenine assay in A172 glioblastoma line (TDO2 expressor); details: 18 h, read-out: IC50, inhibition of kynurenine secretion
T2 construct: identify cell lines endogenously expressing only IDO1, only TDO2, and both enzymes simultaneously; endogenous in cells; host or cells: A172 glioblastoma cell line
T2 sequence (P48775 whole entry): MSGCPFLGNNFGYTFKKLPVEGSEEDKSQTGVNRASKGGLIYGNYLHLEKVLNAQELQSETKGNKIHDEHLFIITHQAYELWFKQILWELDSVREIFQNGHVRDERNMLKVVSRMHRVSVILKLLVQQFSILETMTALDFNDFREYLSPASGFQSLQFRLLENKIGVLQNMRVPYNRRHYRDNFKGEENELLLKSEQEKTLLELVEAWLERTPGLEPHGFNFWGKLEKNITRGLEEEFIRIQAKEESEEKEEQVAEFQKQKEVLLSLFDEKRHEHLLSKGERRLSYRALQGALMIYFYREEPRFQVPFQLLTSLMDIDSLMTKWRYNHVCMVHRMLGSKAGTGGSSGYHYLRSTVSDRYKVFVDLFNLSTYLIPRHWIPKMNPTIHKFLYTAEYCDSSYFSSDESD
Procedure: as §3

[2] = tested on: BT549 and SKOV3 cell lines; assay: WST-1 assay of cellular metabolic activity / cell viability; assay type: cell-based, human; details: 20 µM; asterisks in Figure 6A
Procedure: Breast cancer cell lines MCF7, MDA-MB-231, BT549, Hs578T; ovarian cell line SKOV3; glioblastoma cell line A172 and lung cancer cell line H460 were grown in α-MEMGibco, Grand Island, NY, USA; ThermoFisher catalogue number 12000022) containing 5% foetal calf serum (Moregate Biotech, Hamilton, New Zealand), insulin/transferrin/selenium supplement (Roche, Ref-11074547001), added according to the manufacturer’s instructions, as well as penicillin/streptomycin (100 U/mL and 100 μg/mL, respectively). The amount of kynurenine produced by the cells was measured as described previously. […] After spinning the plates for 20 min at 2500 g, the supernatants were mixed at a 1:1 ratio with 4-(dimethylamino)benzaldehyde (20 mg/mL in acetic acid; Sigma) and the absorbance was read at 480 nm on an EnSpire 2300 Multimode Plate Reader (Perkin-Elmer, Singapore, Singapore). […] After 1 h of incubation at 37 °C, the absorbance was measured at 440 nm. WST-1 is reduced on the outer membrane of viable cells to a soluble formazan by reducing equivalents such as NAD(P)H. The absorbance measured at 440 nm indicates the number of metabolically active cells in the culture and represents a surrogate marker of cell viability.

Q: With `CC1c2cc(-c3c[nH]c4cc(F)ccc34)ccc2S(=O)(=O)N1CC(N)=O` (centres unmarked) [1a] as the molecule, how does the IC50 (TDO2) read?
A: Its IC50 is 0.026 µM.

Q: For `C[C@H]1NS(=O)(=O)c2ccc(-c3c[nH]c4cc(F)ccc34)cc21` [1b], which IC50 (TDO2) is on record?
A: Its IC50 is 0.027 µM.

Q: For `O=S1(=O)NC(CO)c2cc(-c3c[nH]c4cc(F)ccc34)ccc21` (centres unmarked) [1d], which IC50 (TDO2) is on record?
A: Its IC50 is 0.043 µM.

Q: With `O=C1c2ccccc2C(=O)c2c1nnn2Cc1cccc(C(=O)N2CCOCC2)c1` [1e] as the molecule, how does the IC50 (TDO2) read?
A: The IC50 was 0.048 µM.

Q: With `Nc1cccc(-c2c[nH]nn2)c1` [2a] as the molecule, how does the “Activity class in the TDO2 test library” value (TDO2) read?
A: The value was “inactive”.

Q: With `Brc1cccc(-c2c[nH]nn2)c1` [2b] as the molecule, how does the “Activity class in the TDO2 test library” value (TDO2) read?
A: Its value is “inactive”.

Q: Which “Activity class in the TDO2 test library” value (TDO2) does the source give for `FC(F)(F)c1cc(-c2c[nH]nn2)ccn1` [2c] here?
A: Its value is “inactive”.

Q: Which “Activity class in the TDO2 test library” value (TDO2) does the source give for `O=C1Nc2ccccc2/C1=N\Nc1nc2ccccc2s1` [2d] here?
A: The value was “inactive”.

Q: With `O=C(CC1(O)C(=O)Nc2c(Cl)cc(Cl)cc21)c1ccc(Cl)cc1` (centres unmarked) [2e] as the molecule, how does the “Activity class in the TDO2 test library” value (TDO2) read?
A: Its value is “inactive”.

Q: Which “Inhibition of kynurenine production, in words” value (IDO1 (SKOV3 cells); SKOV3, at 1 µM) does the source give for `Nc1nonc1/C(=N/O)Nc1ccc(F)c(Cl)c1` [5L] here?
A: Its value is “completely inhibited”.

Q: With `Fc1ccc2c(/C=C\c3cccnc3)c[nH]c2c1` [680C91] as the molecule, how does the “Effect on kynurenine production, in words” value (IDO1 (SKOV3 cells); SKOV3) read?
A: The value was “barely affected”.

Q: With `COc1ccccc1C(=O)CC(=O)c1ccc(C)cc1O` [TD12] as the molecule, how does the “Inhibition of kynurenine secretion” value [1] read?
A: Its value is 50% ± 20.

Q: Which IC50 (IDO1 (SKOV3 cells)) does the source give for `Cc1ccc(C(=O)CC(=O)c2ccccc2OC(C)C)c(O)c1` [TD18] here?
A: The IC50 was 28.9 µM.

Q: What about the “Inhibition of kynurenine secretion” value [1] of the same molecule?
A: Its value is 50% ± 20.

Q: What does the source list for `CC1=C(CC(=O)c2sccc2Br)C(=O)c2ccccc2C1=O` [TD34]?
A: IC50 (IDO1 (SKOV3 cells)): 47.3 µM and ~40 µM; IC50 (IDO1/TDO2 (BT549 cells); BT549 (IDO1/TDO2), 18 h, read-out: IC50, inhibition of kynurenine secretion): 3.42 µM; Fold higher potency in BT549 than in A172 and SKOV3 (IDO1/TDO2 (BT549 cells); BT549 versus A172 / SKOV3): more than 10 fold; IC50 (TDO2 (A172 cells)): 37.7 µM and ~40 µM; Inhibition of kynurenine production, in words [1]: inhibited kynurenine production; Toxicity to the BT549 and SKOV3 cell lines [2]: absence of cell toxicity
